For three molecules, IC50 results are on record in PMC3479967 (Evidence-based Complementary and Alternative Medicine : eCAM, 2012).

Where only a bound is given, the exact number is not on record here.

The target of the test is T1, UGT1A8 (Homo sapiens, UniProt Q9HAW9).
T1 sequence (Q9HAW9 26-530): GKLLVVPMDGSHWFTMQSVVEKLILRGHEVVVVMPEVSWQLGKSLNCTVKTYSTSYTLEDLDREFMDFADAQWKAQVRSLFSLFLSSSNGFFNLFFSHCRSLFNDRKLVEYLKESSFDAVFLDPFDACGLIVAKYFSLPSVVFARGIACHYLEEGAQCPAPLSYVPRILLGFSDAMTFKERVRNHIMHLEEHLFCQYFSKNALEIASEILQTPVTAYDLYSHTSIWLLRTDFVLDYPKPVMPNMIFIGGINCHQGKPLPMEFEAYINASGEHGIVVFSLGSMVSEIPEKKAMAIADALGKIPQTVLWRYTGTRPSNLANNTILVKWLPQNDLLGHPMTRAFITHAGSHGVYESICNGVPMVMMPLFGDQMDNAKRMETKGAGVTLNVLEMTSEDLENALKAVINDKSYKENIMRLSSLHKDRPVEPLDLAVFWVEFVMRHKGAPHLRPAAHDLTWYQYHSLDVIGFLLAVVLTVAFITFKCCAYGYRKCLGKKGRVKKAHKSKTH
In words: Inhibition of recombinant UGT1A8 activity (4-MU glucuronidation). The method, then: A panel of recombinant human UGT supersomes (UGT1A1, UGT1A3, UGT1A4, UGT1A6, UGT1A7, UGT1A8, UGT1A9, UGT1A10, UGT2B4, UGT2B7, UGT2B15, and UGT2B17) expressed in baculovirus-infected insect cells were purchased from BD Gentest Corp. (Woburn, MA, USA).
4-MU, a nonselective substrate of UGTs, was used as probe substrate for all UGTs except UGT1A4. Incubations with each individual enzyme were conducted using conditions previously described. There was a 5 min preincubation step at 37°C before the reaction was started by addition of UDPGA. The incubation mixtures were then centrifuged at 20,500 ×g for 15 min to obtain the supernatant. Aliquots (20 μL) were then analyzed by HPLC. The HPLC system (SHIMADZU, Kyoto, Japan) consisted of an SCL-10A system controller, two LC-10AT pumps, a SIL-10A auto injector, and a SPD-10AVP UV detector. Chromatographic separation was achieved using a Kromasil ODS column (4.6 × 150 mm I.D., 5 μm particle size) at a flow rate of 1 mL/min and UV detection at 316 nm. The mobile phase consisted of 10 mM KH2PO4, pH 2.7 (A) and acetonitrile (B). The following gradient was applied at a flow rate of 1 mL/min: 0–4 min 80% A and 20% B, 4.1–8 min 50% A and 50% B, 8.1–12 min, 30% A and 70% B. All experiments were performed in two independent experiments in duplicate.
A typical incubation mixture contained recombinant human UGTs, 5 mM MgCl2, 5 mM UDPGA, 50 μg/mg protein alamethicin, 50 mM Tris-HCl buffer (pH 7.4), and various probe substrates of UGTs in the absence or presence of different concentrations of inhibitors. […] The final concentration of DMSO in the incubation system was 1% (v/v). […]
Inhibition data from experiments were graphically represented by Dixon plots. K i values were calculated by nonlinear regression using the equations for competitive inhibition (1), noncompetitive inhibition (2), or mixed inhibition (3), [22] […] The type of inhibition was determined from the enzyme inhibition models. Goodness of fit to kinetic and inhibition models was assessed from the F statistic, r ^2 values, parameter standard error estimates, and 95% confidence intervals. […]
One may read the IC50 as the concentration that gives 50% inhibition. As for `COc1ccc(-c2oc3c(CC=C(C)C)c(O[C@@H]4O[C@H](CO)[C@@H](O)[C@H](O)[C@H]4O)cc(O)c3c(=O)c2O[C@@H]2O[C@@H](C)[C@H](O)[C@@H](O)[C@H]2O)cc1` [Icariin], the IC50 is over 100 µM.

Take `COc1ccc(-c2oc3c(CC=C(C)C)c(O[C@@H]4O[C@H](CO)[C@@H](O)[C@H](O)[C@H]4O)cc(O)c3c(=O)c2O)cc1` [Icariside I]: the IC50 is over 100 µM.

Take `COc1ccc(-c2oc3c(CC=C(C)C)c(O)cc(O)c3c(=O)c2O)cc1` [Icaritin]: the IC50 is over 100 µM.
